According to patent US20090325920A1, “METHODS FOR THE TREATMENT OF A TRAUMATIC CENTRAL NERVOUS SYSTEM INJURY” (priority 2005, published 2009):

What was measured:
[1] = clinical; conditions: human, in vivo
Source text: This study was approved by the Institutional Review Board of Emory University, the Drug Safety Monitoring Board (NINDS) and the FDA (IND #58,986). After obtaining informed consent, thirty-six patients meeting the inclusion criteria outlined as follows were studied. […] Inclusion criteria required that each patient be ≧18 years old, have a closed head injury arising from blunt trauma, have a moderate to severe brain injury (Index Glasgow Coma Score (GCS) 4-12) and arrive in the Emergency Department and obtain informed consent (from next-of-kin) in less than 11 hours post injury.
Aliquots of each solution were assayed for final concentration and sterility. […] Each kit contained six vials. […] The placebo kits were also formulated with 95% ethanol. Because of the alcohol concentration, doses of study drug were mixed with Intralipid® immediately prior to infusion. Each infusion dose was administered over 12 hours and repeated every 12 hours for a total of 72 hours. […] The dosing worksheet was also used to calculate the volume of study medication to be diluted in Intralipid® for each of the remaining infusion reservoirs at a standard rate of 10 cc/hr.
Nine (5 ml) samples were obtained at the following times during the infusion: pre-infusion (0), 4, 6, 12, 24, 36, 48, 60, and 72 hours. An additional five samples were obtained following cessation of infusion at: 0.5, 1, 2, 4 and 8 hours. Samples were allowed to clot, and then centrifuged After that, the serum was removed and stored at −70° C. until analyzed.
The primary pharmacokinetic parameter, CL, was estimated as the ratio of the dose to area under the serum concentration-time curve (AUC). AUC's were calculated using the linear trapezoidal rule (Veng-Pedersen (1989) Clin Pharmacokinet, 17(6):424-40). The elimination phase rate constant, ke, was calculated from the serum concentration-time data following the termination of the infusion using iterative non-linear regression (WinNonlin®, Pharsight Corporation, Mountain View, Calif.). Volume of Distribution was estimated as the ratio of CL and ke. Css was estimated as the ratio of Dose and CL. Actual Css was defined as the concentration achieved when the slope of the serum concentration-time curve for three or more consecutive samples was not different from zero.
Predicted Css concentrations were calculated as the ratio of the infusion rate/clearance. Differences between predicted and measured Css were made using a ‘t’ test for repeated measures. A Bland-Altman analysis was conducted to assess the magnitude of any bias associated with this approach (Bland and Altman (1986) Lancet, 1(8476):307-10). Pharmacokinetic parameter comparisons between male and female were accomplished using a ‘t’ test for independent means. A p value of less than 0.05 was considered the minimum level for rejection of the null hypothesis.

[2] = Stability of progesterone solutions (isocratic HPLC-UV); assay type: physicochemical
Source text: For all stability testing, the method of […], et al. was used with minor modifications ([…], et al. (1999) Journal of Pharmaceutical & Biomedical Analysis, 19(5):803-8). The method was originally validated to assess the stability of medroxyprogesterone acetate and estradiol valerate tablets. It is an isocratic HPLC-UV method utilizing external standardization. A 5 micron, 4.6×250mm BDS-Hypersil C-18 column (Keystone Scientific) was used and the analyses were completed on an Agilent 100 model HPLC system with photodiode array detector. The mobile phase consisted of 40% 0.07M ammonium acetate buffer, pH 7.2 and 60% acetonitrile. Detection was at […]. […] Reproducibility as assessed by 10 injections of the same preparation on multiple different days was always less that 10%. […] A five point standard curve was run with each analysis.

[3] = Solubility of progesterone in carriers; assay type: physicochemical
[4] = tested on: patients having moderate to severe TBI; assay: Pilot phase II randomized double-blind trial of progesterone for traumatic brain injury, preliminary evaluation (Example 2); assay type: in vivo, human
Experimental: The administration protocol was carried out was described above in Example 1.
To determine if a therapeutic response was achieved, the following endpoints were monitored:
ICP reduction determined by calculating “therapeutic intensity level” (ICP-TIL);
duration of coma (injury to awaking);
mortality one-month post injury;
neurological outcome 1 month and 1 year post-injury, as determined by Glasgow outcome scale (GOS), Disability rating scale (DRS) and Galveston orientation and amnesia test (GOAT).
The administration protocol and pharmaceutical composition administered are described in detail in Example 1. Follow up regarding condition occurred at 30 days and 1 year.

[5] = number of subjects, treatment A (76 of 99)

Which Css actually measured ([1]; both) does the source give for `CC(=O)[C@H]1CC[C@H]2[C@@H]3CCC4=CC(=O)CC[C@]4(C)[C@H]3CC[C@]12C` [progesterone, pregn-4-ene-3,20-dione] here?
Its Css actually measured is 337 ± 135 ng/mL.

What about the “Css predicted by Ro/CL” value ([1]; both) of the same molecule?
The value was 332 ± 121 ng/mL.

And the clearance ([1]; both, CL)?
The clearance was 28.8 mL/min/kg.

And the half-life ([1]; both, terminal half-life)?
The half-life was 1.78 ± 1 h.

What about the “Css Measured” value ([1]; female) of the same molecule?
Its value is 316 ng/mL.

And the clearance ([1]; female, CL)?
Its clearance is 31.3 mL/min/kg.

And the Vd ([1]; female, iv)?
The Vd was 1.33 L/kg.

What about the half-life ([1]; female, t1/2) of the same molecule?
The half-life was 2.03 ± 1.08 h.

And the clearance ([1]; male, CL)?
Its clearance is 27.7 mL/min/kg.

What about the Vd ([1]; male, iv) of the same molecule?
Its Vd is 1.62 L/kg.

And the clearance ([1]; male, iv)?
Its clearance is 22.2 mL/min/kg.

And the half-life ([1]; male, t1/2)?
The half-life was 1.6 ± 0.95 h.

And the stability of solution ([2]; Intralipid solutions containing progesterone in 95% ethyl alcohol)?
The stability of solution was no less than 24 h.

What about the stability of solution ([2]; solution of progesterone in 95% ethyl alcohol, room temperature) of the same molecule?
The stability of solution was “up to 2 years”.

And the solubility [3]?
Its solubility is “soluble only in alcohol”.

What about the “amount dissolved into solution” value ([3]; Intralipid 20%) of the same molecule?
Its value is “up to 4 gm per 1 liter of intralipid”.

And the mortality rate ([4]; moderate to severe TBI, three days IV progesterone, preliminary)?
Its mortality rate is 12.9%.

What about the “Brain death, frequency” value [4, 5] of the same molecule?
Its value is 4.

What about the “Medicinal death, frequency” value [4, 5] of the same molecule?
Its value is 5.

What about the “Not Dead, frequency” value [4, 5] of the same molecule?
Its value is 67.

And the “proportion of subjects experiencing brain death versus group B” value ([4]; p=0.0295 by Fisher's exact test)?
The value was “significantly lower proportion”.

What about the “proportion of subjects experiencing medical death versus group B” value ([4]; p=0.6622 by Fisher's exact) of the same molecule?
Its value is “not statistically significant”.

What about the “Medicinal death, percent” value ([4]; percent of all 99 subjects) of the same molecule?
The value was 5.05%.

What about the “Not Dead, percent” value ([4]; percent of all 99 subjects) of the same molecule?
Its value is 67.68%.

What about the “reduction in brain deaths” value ([4]; versus control subjects, preliminary) of the same molecule?
Its value is 60%.
